Results: patent US8137919B2 (Montefiore Medical Center, priority 2008, dated 2012)

Legend:
Assay type in all cases: cell-based
SW403 cells = test: Apoptosis, PI staining and FACS; conditions: 5 microMolar, 72 hours treatment
Experimental: FIG. 4. […] Cell cycle distribution and apoptosis was assessed by PI staining and FACS analysis. Values shown are mean±SEM, n=3, #P<0.05.

[1] = tested on: cetuximab sensitive and resistant cell lines; test: Growth response to EGF, MTT assay; conditions: 0.5 or 5 ng/ml EGF
Experimental: Cell growth was assayed by MTT assay. Values shown are mean±SEM from a representative experiment, #p<0.05. Experiments were repeated 3 separate times.
(§1) For each cell line, one plate was harvested for determination of t=0 absorbance values. Viable cells were determined 72 h post-treatment using the MTT assay by measurement of absorbance at 570 nm. The relative rate of cell growth for each cell line was factored into the analysis by subtracting the absorbance at time zero from both the control and treatment groups. All the experiments were replicated a minimum of 3 times. For determination of sensitivity to EGF, cells were serum starved for 4 h then treated with 0, 0.5 or 5 ng/ml EGF for 24-72 h.

[2] = tested on: LIM2405, HCT15, and HCT116 (cetuximab resistant cell lines); test: Proliferative response to EGF, S-phase; conditions: 24 h post EGF treatment (0.5 ng/ml), serum-free
Experimental: as §1
(§2) To test this, the proliferative response of the 3 most cetuximab-sensitive and 3 most cetuximab-resistant cell lines to exogenous EGF-treatment was examined under serum-free conditions (FIG. 6). […] These findings indicate that a subset of colon tumors exist that are dependent upon ligand activation of EGFR for their growth, and it is these cell lines that are growth inhibited by blockade of ligand binding to the EGFR.

[3] = tested on: GEO, LIM1215, and SW403 (cetuximab sensitive cell lines); test: Proliferative response to EGF, S-phase; conditions: 24 h post EGF treatment (0.5 ng/ml), serum-free
Experimental: as §1, §2

| Compound | apoptosis (SW403 cells) | cell growth (MTT) [1] | change in S-phase [2] | change in S-phase [3] |
| --- | --- | --- | --- | --- |
| O=c1[nH]cc(F)c(=O)[nH]1 [5FU, 5-fluoruracil] | approximately 50% | – | – | – |
| EGF: EGFR activator, EGFR ligand | – | preferentially increased growth of the cetuximab sensitive cell lines | not | significant increase |
